Reference: patent US9586951B2 (FUJIFILM Corporation, priority 2013, dated 2017)

Tests used:
ATM = biological target: T1, ATM (Homo sapiens, UniProt Q13315); experiment: ATM inhibition test (phosphorylation of Chk2 generated by ionizing radiation, AlphaScreen SureFire); assay type: cell-based; conditions: phosphorylated Chk2 in NCI-H460 cells, ionizing radiation 8Gy, 1 hour after test compound treatment; read-out: ATM inhibitory activity
T1 construct: detecting phosphorylation of Chk2 in a human non-small cell lung cancer cell line NCI-H460 (ATCC company); host or cells: NCI-H460 human non-small cell lung cancer cells
Summary of the method: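 Phosphorylated Chk2 read by AlphaScreen SureFire in human non-small cell lung cancer NCI-H460 cells, 1 hour after 8Gy ionizing radiation at 37° C. Compound added 1 hour before irradiation. Percent inhibition normalised between irradiated and non-irradiated drug-untreated signals.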

[1] = system: human non-small cell lung cancer cell line NCI-H460; experiment: Cell proliferation inhibition test by sensitivity-enhancing to ionizing radiation (Cell Titer Glo); assay type: cell-based; conditions: concentration in which SER became 2, NCI-H460 cells, ionizing radiation 2 Gy, cultured 120 hour
Summary of the method: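 Cells seeded at 2×10^3 cells/mL in RPMI-1640 with 10% FBS; after 24 h, compound added (0.1% DMSO), and 30 min later half the plates irradiated at 2 Gy. After 120 hour at 37° C, viability by Cell Titer Glo luminescence; SER2 is the concentration giving SER of 2 by sigmoidal fit.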

T1 sequence (Q13315 whole entry): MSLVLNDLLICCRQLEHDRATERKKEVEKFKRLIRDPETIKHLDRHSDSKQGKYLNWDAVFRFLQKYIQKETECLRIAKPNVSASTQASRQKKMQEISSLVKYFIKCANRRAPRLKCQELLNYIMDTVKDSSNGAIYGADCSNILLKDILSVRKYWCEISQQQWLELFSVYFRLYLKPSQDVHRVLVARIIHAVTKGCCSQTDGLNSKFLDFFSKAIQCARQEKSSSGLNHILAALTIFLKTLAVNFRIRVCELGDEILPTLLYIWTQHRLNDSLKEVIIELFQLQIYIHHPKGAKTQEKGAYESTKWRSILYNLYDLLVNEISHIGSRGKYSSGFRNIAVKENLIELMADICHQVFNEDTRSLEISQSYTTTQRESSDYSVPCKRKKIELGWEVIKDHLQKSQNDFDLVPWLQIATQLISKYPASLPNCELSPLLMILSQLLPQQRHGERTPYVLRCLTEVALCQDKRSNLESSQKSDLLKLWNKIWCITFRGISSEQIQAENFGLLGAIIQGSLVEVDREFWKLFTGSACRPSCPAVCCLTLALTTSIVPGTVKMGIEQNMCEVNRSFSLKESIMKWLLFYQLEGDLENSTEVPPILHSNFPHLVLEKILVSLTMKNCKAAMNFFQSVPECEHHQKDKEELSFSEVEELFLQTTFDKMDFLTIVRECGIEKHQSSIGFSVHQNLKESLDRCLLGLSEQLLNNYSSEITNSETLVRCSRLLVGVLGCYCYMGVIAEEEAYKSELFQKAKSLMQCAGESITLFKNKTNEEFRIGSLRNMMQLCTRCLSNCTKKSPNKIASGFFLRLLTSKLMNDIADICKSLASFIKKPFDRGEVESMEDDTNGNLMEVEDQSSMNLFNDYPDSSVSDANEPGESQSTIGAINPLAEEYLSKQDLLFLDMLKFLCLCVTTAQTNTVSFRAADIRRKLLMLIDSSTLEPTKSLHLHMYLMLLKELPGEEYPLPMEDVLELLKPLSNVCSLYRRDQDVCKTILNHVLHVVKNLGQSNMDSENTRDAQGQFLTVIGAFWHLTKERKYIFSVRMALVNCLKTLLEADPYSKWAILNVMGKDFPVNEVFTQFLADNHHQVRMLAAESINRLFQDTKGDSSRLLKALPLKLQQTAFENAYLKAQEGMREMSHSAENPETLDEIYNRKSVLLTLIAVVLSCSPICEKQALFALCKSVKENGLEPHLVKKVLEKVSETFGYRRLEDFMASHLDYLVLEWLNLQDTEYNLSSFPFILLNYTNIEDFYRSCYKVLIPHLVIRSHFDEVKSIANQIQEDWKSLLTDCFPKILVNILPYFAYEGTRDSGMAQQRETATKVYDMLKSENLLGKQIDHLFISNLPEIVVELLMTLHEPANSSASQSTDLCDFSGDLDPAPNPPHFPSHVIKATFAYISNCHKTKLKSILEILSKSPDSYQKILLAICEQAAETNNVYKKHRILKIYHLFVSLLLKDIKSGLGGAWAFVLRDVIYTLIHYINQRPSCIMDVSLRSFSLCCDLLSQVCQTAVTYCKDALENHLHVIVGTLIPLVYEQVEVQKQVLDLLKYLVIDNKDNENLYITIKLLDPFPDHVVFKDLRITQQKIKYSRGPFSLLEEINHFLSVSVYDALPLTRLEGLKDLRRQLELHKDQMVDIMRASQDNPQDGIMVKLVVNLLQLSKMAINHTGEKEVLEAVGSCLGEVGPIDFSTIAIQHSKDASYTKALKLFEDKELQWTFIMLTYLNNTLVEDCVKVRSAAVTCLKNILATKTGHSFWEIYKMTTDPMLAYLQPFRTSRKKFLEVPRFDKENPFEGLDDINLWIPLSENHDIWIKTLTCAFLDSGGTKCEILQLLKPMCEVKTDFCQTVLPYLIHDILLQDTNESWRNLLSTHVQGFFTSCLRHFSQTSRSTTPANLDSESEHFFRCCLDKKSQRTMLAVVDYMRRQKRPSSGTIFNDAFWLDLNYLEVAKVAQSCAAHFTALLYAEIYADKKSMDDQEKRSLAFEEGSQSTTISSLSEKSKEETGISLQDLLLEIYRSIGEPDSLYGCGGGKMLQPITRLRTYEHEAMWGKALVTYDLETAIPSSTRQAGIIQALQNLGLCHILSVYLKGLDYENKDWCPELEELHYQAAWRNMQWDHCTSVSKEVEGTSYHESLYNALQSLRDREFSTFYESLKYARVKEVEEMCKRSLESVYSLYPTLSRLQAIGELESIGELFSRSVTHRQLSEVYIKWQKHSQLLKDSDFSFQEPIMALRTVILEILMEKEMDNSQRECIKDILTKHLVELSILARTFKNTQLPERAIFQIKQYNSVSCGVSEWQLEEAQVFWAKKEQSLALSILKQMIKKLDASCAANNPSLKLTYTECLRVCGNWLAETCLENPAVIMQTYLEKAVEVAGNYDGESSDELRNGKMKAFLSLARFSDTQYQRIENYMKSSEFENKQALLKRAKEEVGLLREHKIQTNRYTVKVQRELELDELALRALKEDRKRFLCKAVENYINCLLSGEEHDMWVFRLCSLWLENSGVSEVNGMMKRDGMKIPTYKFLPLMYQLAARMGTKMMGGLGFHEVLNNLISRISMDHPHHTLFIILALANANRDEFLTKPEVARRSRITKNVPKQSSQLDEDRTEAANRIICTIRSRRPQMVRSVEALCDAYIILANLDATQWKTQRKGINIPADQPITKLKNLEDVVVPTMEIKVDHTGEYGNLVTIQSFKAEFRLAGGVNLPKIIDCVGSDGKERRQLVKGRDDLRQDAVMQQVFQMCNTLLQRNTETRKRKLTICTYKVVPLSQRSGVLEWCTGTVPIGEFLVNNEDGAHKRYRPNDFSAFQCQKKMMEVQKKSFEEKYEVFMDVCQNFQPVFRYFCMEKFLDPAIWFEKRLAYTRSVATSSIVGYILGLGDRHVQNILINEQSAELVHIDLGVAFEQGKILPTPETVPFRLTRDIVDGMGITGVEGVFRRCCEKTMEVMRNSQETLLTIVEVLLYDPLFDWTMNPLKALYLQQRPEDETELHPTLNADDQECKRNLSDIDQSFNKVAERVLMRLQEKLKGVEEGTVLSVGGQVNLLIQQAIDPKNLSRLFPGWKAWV

Compound | IC50 (ATM) | SER2 (concentration at which the radiation sensitivity-enhancement ratio reaches 2) ([1]; Homo sapiens, NCI-H460, 120 h) | SER2 (concentration at which the radiation sensitivity-enhancement ratio reaches 2) [1]
Cc1cccc(C(Nc2ccc3c(c2)Sc2cccc(-c4cc(N5CCOCC5)cc(=O)[nH]4)c2S3)C2CCCN(C)C2)n1 (single isomer, unassigned) [Example 1-22-4, 6-(7-(((1-Methylpiperidin-3-yl)(6-methylpyridin-2-yl)methyl)amino)thianthren-1-yl)-4-morpholino pyridin-2 (1H)-one] | < 0.1 µM | < 100 nM | –
O=c1cc(N2CCOCC2)cc(-c2cccc3c2Sc2ccc(NCCN4CCOCC4)cc2S3)[nH]1 [Example 1-10-7, 4-Morpholino-6-(7-((2-morpholinoethyl)amino)thianthren-1-yl)pyridin-2 (1H)-one] | < 0.1 µM | 100 to 500 nM | –
O=c1cc(N2CCOCC2)cc(-c2cccc3c2Sc2ccc(NCCN4CC5(COC5)C4)cc2S3)[nH]1 [Example 1-16-3, 6-(7-((2-(2-Oxa-6-azaspiro[3.3]heptan-6-yl)ethyl)amino)thianthren-1-yl)-4-morpholinopyridin-2(1H)-one] | < 0.1 µM | 100 to 500 nM | –
Cc1cnc(C(C)Nc2ccc3c(c2)Sc2cccc(-c4cc(N5CCOCC5)cc(=O)[nH]4)c2S3)nc1 (single isomer, unassigned) [Example 1-12-139-2, 6-(7-((1-(5-methylpyrimidin-2-yl)ethyl)amino)thianthren-1-yl)-4-morpholinopyridin-2(1H)-one] | < 0.1 µM | – | 100 to 500 nM
CC(CN1CCOCC1)Nc1ccc2c(c1)Sc1cccc(-c3cc(N4CCOCC4)cc(=O)[nH]3)c1S2 (single isomer, unassigned) [Example 1-13-2-2, 4-morpholino-6-(7-((1-morpholinopropan-2-yl)amino)thianthren-1-yl)pyridin-2(1H)-one] | < 0.1 µM | < 100 nM | –
Cc1cncc(C(C)Nc2ccc3c(c2)Sc2cccc(-c4cc(N5CCOCC5)cc(=O)[nH]4)c2S3)n1 (stereo not shown) [Example 1-12-73, 6-(7-((1-(6-Methylpyrazin-2-yl)ethyl)amino)thianthren-1-yl)-4-morpholino pyridin-2 (1H)-one] | < 0.1 µM | < 100 nM | –
Cc1cnc(C(C)Nc2ccc3c(c2)Sc2cccc(-c4cc(N5CCOCC5)cc(=O)[nH]4)c2S3)nc1 (single isomer, unassigned) [Example 1-12-139-1, 6-(7-((1-(5-methylpyrimidin-2-yl)ethyl)amino)thianthren-1-yl)-4-morpholinopyridin-2(1H)-one] | < 0.1 µM | < 100 nM | –
COCC(CN1CCOCC1)Nc1ccc2c(c1)Sc1cccc(-c3cc(N4CCOCC4)cc(=O)[nH]3)c1S2 (racemic) [Example 1-17-1-1, 6-(7-((1-Methoxy-3-morpholinopropan-2-yl)amino)thianthren-1-yl)-4-morpholinopyridin-2(1H)-one] | < 0.1 µM | < 100 nM | –
O=c1cc(N2CCOCC2)cc(-c2cccc3c2Sc2ccc(NC4CCN(C5CC5)CC4)cc2S3)[nH]1 [Example 1-24-18, 6-(7-((1-Cyclopropylpiperidin-4-yl)amino)thianthren-1-yl)-4-morpholino pyridin-2(1H)-one] | < 0.1 µM | 100 to 500 nM | –
O=c1cc(N2CCOCC2)cc(-c2cccc3c2Sc2ccc(NCc4cc(C5CC5)ccn4)cc2S3)[nH]1 [Example 1-12-14, 6-(7-(((4-Cyclopropylpyridin-2-yl)methyl)amino)thianthren-1-yl)-4-morpholino pyridin-2(1H)-one] | < 0.1 µM | 100 to 500 nM | –
Cc1cccc(CNc2ccc3c(c2)Sc2cccc(-c4cc(N5CCOCC5)cc(=O)[nH]4)c2S3)n1 [Example 1-12-2, 6-(7-(((6-Methylpyridin-2-yl)methyl)amino)thianthren-1-yl)-4-1-morpholino pyridin-2 (1H)-one] | < 0.1 µM | < 100 nM | –
Cc1ccnc(C(C)Nc2ccc3c(c2)Sc2cccc(-c4cc(N5CCOCC5)cc(=O)[nH]4)c2S3)c1 (stereo not shown) [Example 1-12-29] | < 0.1 µM | < 100 nM | –

The next lines start with results.

IC50 (ATM) | Compound | SER2 (concentration at which the radiation sensitivity-enhancement ratio reaches 2) ([1]; Homo sapiens, NCI-H460, 120 h) | SER2 (concentration at which the radiation sensitivity-enhancement ratio reaches 2) [1]
< 0.1 µM | CC(Nc1ccc2c(c1)Cc1cccc(-c3cc(N4CCOCC4)cc(=O)[nH]3)c1O2)c1nccc(CF)n1 (single isomer, unassigned) [Example 2-14-94-1, 6-(7-((1-(4-(fluoromethyl)pyrimidin-2-yl)ethyl)amino)-9H-xanthen-4-yl)-4-morpholinopyridin-2(1H)-one] | < 100 nM | –
< 0.1 µM | O=c1cc(N2CCOCC2)cc(-c2cccc3c2Oc2ccc(NCc4cncc(C5CC5)c4)cc2C3)[nH]1 [Example 2-2-50, 6-(7-(((5-Cyclopropylpyridin-3-yl)methyl)amino)-9H-xanthen-4-yl)-4-morpholino pyridin-2 (1H)-one] | 100 to 500 nM | –
< 0.1 µM | COCC(CN1CC2CCC(C1)O2)Nc1ccc2c(c1)Sc1cccc(-c3cc(N4CCOCC4)cc(=O)[nH]3)c1S2 [Example 1-46-10, 6-(7-(((2S)-1-(8-Oxa-3-azabicyclo[3.2. l]octan-3-yl)-3-methoxypropan-2-yl)amino)thianthren-1-yl)-4-morpholino pyridin-2(1H)-one] | 100 to 500 nM | –
< 0.1 µM | Cc1ccnc(CNc2ccc3c(c2)Cc2cccc(-c4cc(N5CCOCC5)cc(=O)[nH]4)c2O3)c1 [Example 2-2-40, 6-(7-(((4-Methylpyridin-2-yl)methyl)amino)-9H-xanthen-4-yl)-4-morpholino pyridin-2(1H)-one] | 100 to 500 nM | –
< 0.1 µM | Cc1cccc(C(C)Nc2ccc3c(c2)Cc2cccc(-c4cc(N5CCOCC5)cc(=O)[nH]4)c2O3)n1 (single isomer, unassigned) [Example 2-14-85-2, 6-(7-((1-(6-methylpyridin-2-yl)ethyl)amino)-9H-xanthen-4-yl)-4-morpholinopyridin-2(1H)-one] | < 100 nM | –
0.1 to 0.5 µM | COc1ncc(CNc2ccc3c(c2)Cc2cccc(-c4cc(N5CCOCC5)cc(=O)[nH]4)c2O3)cc1F [Example 2-2-18, 6-(7-(((5-Fluoro-6-methoxypyridin-3-yl)methyl)amino)-9H-xanthen-4-yl)-4-morpholino pyridin-2(1H)-one] | 500 to 2000 nM | –
< 0.1 µM | Cc1cccc(CNc2ccc3c(c2)Cc2ccnc(-c4cc(N5CCOCC5)cc(=O)[nH]4)c2O3)n1 [Example 2-41-2, 6-(7-(((6-Methylpyridin-2-yl)methyl)amino)-5H-chromeno[2,3-c]pyridin-1-yl)-4-morpholino pyridin-2 (1H)-one] | 100 to 500 nM | –
< 0.1 µM | O=c1cc(N2CCOCC2)cc(-c2cccc3c2Oc2ccc(NCc4cc(Cl)ccn4)cc2C3)[nH]1 [Example 2-2-64, 6-(7-(((4-Chloropyridin-2-yl)methyl)amino)-9H-xanthen-4-yl)-4-morpholino pyridin-2(1H)-one] | 100 to 500 nM | –
< 0.1 µM | CC(Nc1ccc2c(c1)Cc1cccc(-c3cc(N4CCOCC4)cc(=O)[nH]3)c1O2)c1cc(Cl)ccn1 (stereo not shown) [Example 2-14-23, 6-(7-((1-(4-Chloropyridin-2-yl)ethyl)amino)-9H-xanthen-4-yl)-4-morpholino pyridin-2(1H)-one] | 100 to 500 nM | –
< 0.1 µM | O=c1cc(N2CCOCC2)cc(-c2cccc3c2Oc2ccc(NCc4cncc(-n5cccn5)c4)cc2S3)[nH]1 [Example 4-4-9, 6-(8-(((5-(1H-Pyrazol-1-yl)pyridin-3-yl)methyl)amino)phenoxathiin-4-yl)-4-morpholino pyridin-2(1H)-one] | 100 to 500 nM | –
0.1 to 0.5 µM | Cc1cccc(C(CO)Nc2ccc3c(c2)Cc2cccc(-c4cc(N5CCOCC5)cc(=O)[nH]4)c2O3)n1 (single isomer, unassigned) [Example 2-14-92-2, 6-(7-((2-hydroxy-1-(6-methylpyridin-2-yl)ethyl)amino)-9H-xanthen-4-yl)-4-morpholinopyridin-2(1H)-one] | < 100 nM | –
< 0.1 µM | COC[C@H](CN1CCO[C@@H](C)C1)Nc1ccc2c(c1)Sc1cccc(-c3cc(N4CCOCC4)cc(=O)[nH]3)c1S2 [Example 1-46-6, 6-(7-(((S)-1-Methoxy-3-((S)-2-methylmorpholino)propan-2-yl)amino)thianthren-1-yl)-4-morpholino pyridin-2(1H)-one] | < 100 nM | –
< 0.1 µM | O=c1cc(N2CCOCC2)cc(-c2cccc3c2Oc2ccc(NCc4cncc(-n5cccc5)c4)cc2C3)[nH]1 [Example 2-2-58, 6-(7-(((5-(1H-Pyrrol-1-yl)pyridin-3-yl)methyl)amino)-9H-xanthen-4-yl)-4-morpholino pyridin-2(1H)-one] | 500 to 2000 nM | –
0.1 to 0.5 µM | Cc1ccnc(C(C)Nc2ccc3c(c2)Cc2cccc(-c4cc(N5CCOCC5)cc(=O)[nH]4)c2O3)c1 (stereo not shown) [Example 2-14-19, 6-(7-((1-(4-Methylpyridin-2-yl)ethyl)amino)-9H-xanthen-4-yl)-4-morpholino pyridin-2(1H)-one] | 100 to 500 nM | –
